# Data reported in US20020137929A1, “1 - (3-heterocyclylphenyl) isothiourea, -isourea, -guanidine and -amidine herbicidal agents” (Intellectual Property Department, BASF Aktiengesellschaft, priority 1998, published 2002).
# Tests used:
# CASOB (Sicklepod) = test: Postemergence herbicidal evaluation; assay type: in vivo, Cassia obtusifolia; conditions: postemergence
# Summary of the method: (§1)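 Compound is applied as a foliar spray to seedlings about two weeks old, formulated in equal parts acetone and water with 0.5% TWEEN 20 and delivered at 40 psi to give about 0.0156–0.500 kg per hectare. Injury is rated visually 0–9 after four to five weeks.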
# GALAP (Galium) = test: Postemergence herbicidal evaluation; assay type: in vivo, Galium aparine; conditions: postemergence
# Summary of the method: as §1
# [1] = tested on: GLXMAW (Soybean, Williams); test: Preemergence herbicidal evaluation; assay type: in vivo, Glycine max, (L.) Merr. cv Williams; conditions: rated 4-5 weeks after treatment
# Summary of the method: (§2)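 Greenhouse preemergence test: seed-soil mix sown on ~1 inch soil; aqueous acetone spray at equivalent of ~0.0156–0.500 kg/ha; greenhouse-held and watered; scored 0–9 visually at 4–5 weeks.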
# ZEAMX (Corn, Field) = test: Postemergence herbicidal evaluation; assay type: in vivo, Zea mays; conditions: postemergence
# Summary of the method: as §1
# MOOVA (Monochoria) = test: Preemergence weed control under flooded paddy conditions; assay type: in vivo, Monochoria vaginalis; conditions: rated 3-4 weeks after treatment
# Summary of the method: (§3)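 Herbicidal effect is scored visually on a 0-9 scale against an untreated control, three to four weeks after compounds are pipetted into the flood water (1.5 to 3 cm deep) over seeds planted in silt loam at 0.5 cm depth. Rates: about 0.0313 to 0.500 kg/ha.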
# ORYSAT (Rice, Tebonnet) [2] = test: Preemergence herbicidal evaluation; assay type: in vivo, Oryza sativa, (L.) Tebonnet; conditions: rated 4-5 weeks after treatment
# Summary of the method: as §2
# [3] = tested on: CHEAL (Lambsquarters, Common); test: Postemergence herbicidal evaluation; assay type: in vivo, Chenopodium album; conditions: postemergence
# Summary of the method: as §1
# ORYSAT (Rice, Tebonnet) [4] = test: Postemergence herbicidal evaluation; assay type: in vivo, Oryza sativa, (L.) Tebonnet; conditions: postemergence
# Summary of the method: as §1
# AMBEL (Ragweed, Common) = test: Preemergence herbicidal evaluation; assay type: in vivo, Ambrosia artemisifolia; conditions: rated 4-5 weeks after treatment
# Summary of the method: as §2
# SETVI (Foxtail, Green) = test: Preemergence herbicidal evaluation; assay type: in vivo, Setaria viridis; conditions: rated 4-5 weeks after treatment
# Summary of the method: as §2
# CYPSE (Flatsedge) = test: Preemergence weed control under flooded paddy conditions; assay type: in vivo, Cyperus serotinus; conditions: rated 3-4 weeks after treatment
# Summary of the method: as §3
compound,measurement,setting,value
CCCCOC(=O)CN1C(=O)CSC1=Nc1cc(-n2c(=O)cc(C(F)(F)F)n(C)c2=O)c(F)cc1Cl [Compound 111],herbicidal rating CASOB,CASOB (Sicklepod); rate 0.0158 kg/ha,0.0
same,herbicidal rating CASOB,CASOB (Sicklepod); rate 0.0315 kg/ha,1.0
same,herbicidal rating CASOB,CASOB (Sicklepod); rate 0.0630 kg/ha,1.0
same,herbicidal rating GALAP,GALAP (Galium); rate 0.0158 kg/ha,0.0
same,herbicidal rating GALAP,GALAP (Galium); rate 0.0315 kg/ha,0.0
same,herbicidal rating GALAP,GALAP (Galium); rate 0.0630 kg/ha,1.0
same,Preemergence herbicidal rating GLXMAW,[1]; rate 0.0156 kg/ha,1.0
same,Preemergence herbicidal rating GLXMAW,[1]; rate 0.0313 kg/ha,1.0
same,Preemergence herbicidal rating GLXMAW,[1]; rate 0.0625 kg/ha,1.0
same,Preemergence herbicidal rating GLXMAW,[1]; rate 0.1250 kg/ha,3.0
same,Preemergence herbicidal rating GLXMAW,[1]; rate 0.2500 kg/ha,4.0
same,herbicidal rating ZEAMX,"ZEAMX (Corn, Field); rate 0.0158 kg/ha",6.5
same,herbicidal rating ZEAMX,"ZEAMX (Corn, Field); rate 0.0315 kg/ha",6.5
same,herbicidal rating ZEAMX,"ZEAMX (Corn, Field); rate 0.0630 kg/ha",7.0
same,MOOVA herbicidal effect rating,MOOVA (Monochoria); 0.0313 kg/ha,3.0
same,MOOVA herbicidal effect rating,MOOVA (Monochoria); 0.0625 kg/ha,4.0
same,MOOVA herbicidal effect rating,MOOVA (Monochoria); 0.1250 kg/ha,4.0
same,MOOVA herbicidal effect rating,MOOVA (Monochoria); 0.2500 kg/ha,4.0
same,Preemergence herbicidal rating ORYSAT,"ORYSAT (Rice, Tebonnet) [2]; rate 0.0156 kg/ha",0.0
same,Preemergence herbicidal rating ORYSAT,"ORYSAT (Rice, Tebonnet) [2]; rate 0.0313 kg/ha",0.0
same,Preemergence herbicidal rating ORYSAT,"ORYSAT (Rice, Tebonnet) [2]; rate 0.0625 kg/ha",0.0
same,Preemergence herbicidal rating ORYSAT,"ORYSAT (Rice, Tebonnet) [2]; rate 0.1250 kg/ha",1.0
same,Preemergence herbicidal rating ORYSAT,"ORYSAT (Rice, Tebonnet) [2]; rate 0.2500 kg/ha",5.0
same,herbicidal rating CHEAL,[3]; rate 0.0158 kg/ha,2.0
same,herbicidal rating CHEAL,[3]; rate 0.0315 kg/ha,6.0
same,herbicidal rating CHEAL,[3]; rate 0.0630 kg/ha,7.0
same,herbicidal rating ORYSAT,"ORYSAT (Rice, Tebonnet) [4]; rate 0.0158 kg/ha",2.5
same,herbicidal rating ORYSAT,"ORYSAT (Rice, Tebonnet) [4]; rate 0.0315 kg/ha",4.5
same,herbicidal rating ORYSAT,"ORYSAT (Rice, Tebonnet) [4]; rate 0.0630 kg/ha",4.5
same,Preemergence herbicidal rating AMBEL,"AMBEL (Ragweed, Common); rate 0.0156 kg/ha",0.0
same,Preemergence herbicidal rating AMBEL,"AMBEL (Ragweed, Common); rate 0.0313 kg/ha",0.0
same,Preemergence herbicidal rating AMBEL,"AMBEL (Ragweed, Common); rate 0.0625 kg/ha",0.0
same,Preemergence herbicidal rating AMBEL,"AMBEL (Ragweed, Common); rate 0.1250 kg/ha",6.0
same,Preemergence herbicidal rating AMBEL,"AMBEL (Ragweed, Common); rate 0.2500 kg/ha",7.0
same,Preemergence herbicidal rating SETVI,"SETVI (Foxtail, Green); rate 0.0156 kg/ha",0.0
same,Preemergence herbicidal rating SETVI,"SETVI (Foxtail, Green); rate 0.0313 kg/ha",0.0
same,Preemergence herbicidal rating SETVI,"SETVI (Foxtail, Green); rate 0.0625 kg/ha",1.0
same,Preemergence herbicidal rating SETVI,"SETVI (Foxtail, Green); rate 0.1250 kg/ha",7.0
same,Preemergence herbicidal rating SETVI,"SETVI (Foxtail, Green); rate 0.2500 kg/ha",7.0
same,CYPSE herbicidal effect rating,CYPSE (Flatsedge); 0.0625 kg/ha,4.0
same,CYPSE herbicidal effect rating,CYPSE (Flatsedge); 0.1250 kg/ha,9.0
same,CYPSE herbicidal effect rating,CYPSE (Flatsedge); 0.2500 kg/ha,9.0
"Cn1c(C(F)(F)F)cc(=O)n(-c2cc(N=C3SCC(=O)N3Cc3ccco3)c(Cl)cc2F)c1=O [Compound 122, 3-{4-Chloro-2-fluoro-5-[(3-furfuryl-4-oxo-2-thiazolidinylidene)amino]phenyl}-1-methyl-6-(trifluoromethyl)-2,4(1H,3H)-pyrimidinedione]",herbicidal rating CASOB,CASOB (Sicklepod); rate 0.0156 kg/ha,1.0
same,herbicidal rating CASOB,CASOB (Sicklepod); rate 0.0313 kg/ha,3.0
same,herbicidal rating CASOB,CASOB (Sicklepod); rate 0.0625 kg/ha,3.0
same,herbicidal rating CASOB,CASOB (Sicklepod); rate 0.1250 kg/ha,4.0
same,herbicidal rating GALAP,GALAP (Galium); rate 0.0156 kg/ha,2.0
same,herbicidal rating GALAP,GALAP (Galium); rate 0.0313 kg/ha,2.0
same,herbicidal rating GALAP,GALAP (Galium); rate 0.0625 kg/ha,4.0
same,herbicidal rating GALAP,GALAP (Galium); rate 0.1250 kg/ha,6.0
same,Preemergence herbicidal rating GLXMAW,[1]; rate 0.0156 kg/ha,0.0
same,Preemergence herbicidal rating GLXMAW,[1]; rate 0.0313 kg/ha,0.0
same,Preemergence herbicidal rating GLXMAW,[1]; rate 0.0625 kg/ha,1.0
same,Preemergence herbicidal rating GLXMAW,[1]; rate 0.1250 kg/ha,0.0
same,Preemergence herbicidal rating GLXMAW,[1]; rate 0.2500 kg/ha,0.0
same,Preemergence herbicidal rating GLXMAW,[1]; rate 0.5000 kg/ha,0.0
same,herbicidal rating ZEAMX,"ZEAMX (Corn, Field); rate 0.0156 kg/ha",4.5
same,herbicidal rating ZEAMX,"ZEAMX (Corn, Field); rate 0.0313 kg/ha",7.0
same,herbicidal rating ZEAMX,"ZEAMX (Corn, Field); rate 0.0625 kg/ha",7.0
same,herbicidal rating ZEAMX,"ZEAMX (Corn, Field); rate 0.1250 kg/ha",7.0
same,"herbicidal effect rating, MOOVA",MOOVA (Monochoria); 0.0313 kg/ha,8.0
same,"herbicidal effect rating, MOOVA",MOOVA (Monochoria); 0.0625 kg/ha,9.0
same,"herbicidal effect rating, MOOVA",MOOVA (Monochoria); 0.1250 kg/ha,9.0
same,"herbicidal effect rating, MOOVA",MOOVA (Monochoria); 0.2500 kg/ha,9.0
same,Preemergence herbicidal rating ORYSAT,"ORYSAT (Rice, Tebonnet) [2]; rate 0.0156 kg/ha",0.0
same,Preemergence herbicidal rating ORYSAT,"ORYSAT (Rice, Tebonnet) [2]; rate 0.0313 kg/ha",0.0
same,Preemergence herbicidal rating ORYSAT,"ORYSAT (Rice, Tebonnet) [2]; rate 0.0625 kg/ha",0.0
same,Preemergence herbicidal rating ORYSAT,"ORYSAT (Rice, Tebonnet) [2]; rate 0.1250 kg/ha",0.0
same,Preemergence herbicidal rating ORYSAT,"ORYSAT (Rice, Tebonnet) [2]; rate 0.2500 kg/ha",0.0
same,Preemergence herbicidal rating ORYSAT,"ORYSAT (Rice, Tebonnet) [2]; rate 0.5000 kg/ha",1.0
same,herbicidal rating CHEAL,[3]; rate 0.0156 kg/ha,6.0
same,herbicidal rating CHEAL,[3]; rate 0.0313 kg/ha,9.0
same,herbicidal rating CHEAL,[3]; rate 0.0625 kg/ha,9.0
same,herbicidal rating CHEAL,[3]; rate 0.1250 kg/ha,9.0
same,herbicidal rating ORYSAT,"ORYSAT (Rice, Tebonnet) [4]; rate 0.0156 kg/ha",3.5
same,herbicidal rating ORYSAT,"ORYSAT (Rice, Tebonnet) [4]; rate 0.0313 kg/ha",3.5
same,herbicidal rating ORYSAT,"ORYSAT (Rice, Tebonnet) [4]; rate 0.0625 kg/ha",3.5
same,herbicidal rating ORYSAT,"ORYSAT (Rice, Tebonnet) [4]; rate 0.1250 kg/ha",5.0
same,Preemergence herbicidal rating AMBEL,"AMBEL (Ragweed, Common); rate 0.0156 kg/ha",0.0
same,Preemergence herbicidal rating AMBEL,"AMBEL (Ragweed, Common); rate 0.0313 kg/ha",0.0
same,Preemergence herbicidal rating AMBEL,"AMBEL (Ragweed, Common); rate 0.0625 kg/ha",0.0
same,Preemergence herbicidal rating AMBEL,"AMBEL (Ragweed, Common); rate 0.1250 kg/ha",2.0
same,Preemergence herbicidal rating AMBEL,"AMBEL (Ragweed, Common); rate 0.2500 kg/ha",2.0
same,Preemergence herbicidal rating AMBEL,"AMBEL (Ragweed, Common); rate 0.5000 kg/ha",3.0
same,Preemergence herbicidal rating SETVI,"SETVI (Foxtail, Green); rate 0.0156 kg/ha",0.0
same,Preemergence herbicidal rating SETVI,"SETVI (Foxtail, Green); rate 0.0313 kg/ha",0.0
same,Preemergence herbicidal rating SETVI,"SETVI (Foxtail, Green); rate 0.0625 kg/ha",0.0
same,Preemergence herbicidal rating SETVI,"SETVI (Foxtail, Green); rate 0.1250 kg/ha",1.0
same,Preemergence herbicidal rating SETVI,"SETVI (Foxtail, Green); rate 0.2500 kg/ha",1.0
same,Preemergence herbicidal rating SETVI,"SETVI (Foxtail, Green); rate 0.5000 kg/ha",9.0
same,"herbicidal effect rating, CYPSE",CYPSE (Flatsedge); 0.2500 kg/ha,3.0
